In paper PMC12770603 (Scientific Reports, 2025) one finds Km data, which are given here for one molecule.

For orientation: Km means the substrate concentration at which the rate is half of its maximum.

The assay concerns EstN3. Briefly: p-nitrophenol release at […] nm, Michaelis-Menten non-linear fit. Type of assay: biochemical, uncultured bacterium. As to conditions: pH 7.0, 37 °C, 15 min.

Consider `CCCCC(=O)Oc1ccc([N+](=O)[O-])cc1` [pNP-valerate], for which the Km amounted to 1520 µM.
